# Assay results: ChEMBL document CHEMBL1201862, “PubChem BioAssay data set” (2004)
# “And” between values parts separate entries of the source, which are not always exact repeats. Equal entries are not always repeated. The source made the active and inactive calls.
# Legend:
# [1] = Luminescence Cell-Based Dose Response HTS to Identify Activators of Luciferase Translation or Activity in H4 […] Cells. [Related pubchem assays: 1829 (Project Summary), 1814 (Primary HTS)]; type: functional
# [2] = Luminescence Cell-Based Dose Confirmation HTS to Identify Activators of 5'UTR Stem-Loop Driven Alpha-Synuclein mRNA Translation in H4 Neuroglioblastoma Cells. [Related pubchem assays: 1829 (Project Summary), 1814 (Primary HTS)]; type: functional
# H4 = assay: Luminescence Cell-Based Dose Response HTS to Identify Activators of 5'UTR Stem-Loop Driven Prion Protein mRNA Translation in H4 Neuroglioblastoma Cells. [Related pubchem assays: 1829 (Project Summary), 1814 (Primary HTS)]; type: functional; details: Homo sapiens
# Cytochrome P450 2C9 = Cytochrome P450 2C9 (Homo sapiens, UniProt P11712)
# Cytochrome P450 2D6 = Cytochrome P450 2D6 (Homo sapiens, UniProt P10635);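 note: CYP2D6 member of a cytochrome P450 panel assay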
# [3] = target: T1, Corticotropin-releasing factor receptor 2/Corticotropin-releasing factor-binding protein (Homo sapiens, UniProt P24387+Q13324); assay: activators of CRF receptor 2 with binding protein – uHTS hits, confirmation (AID 602473); type: functional; details: read-out: EC50_Mean
# T1 sequence (Q13324 whole entry): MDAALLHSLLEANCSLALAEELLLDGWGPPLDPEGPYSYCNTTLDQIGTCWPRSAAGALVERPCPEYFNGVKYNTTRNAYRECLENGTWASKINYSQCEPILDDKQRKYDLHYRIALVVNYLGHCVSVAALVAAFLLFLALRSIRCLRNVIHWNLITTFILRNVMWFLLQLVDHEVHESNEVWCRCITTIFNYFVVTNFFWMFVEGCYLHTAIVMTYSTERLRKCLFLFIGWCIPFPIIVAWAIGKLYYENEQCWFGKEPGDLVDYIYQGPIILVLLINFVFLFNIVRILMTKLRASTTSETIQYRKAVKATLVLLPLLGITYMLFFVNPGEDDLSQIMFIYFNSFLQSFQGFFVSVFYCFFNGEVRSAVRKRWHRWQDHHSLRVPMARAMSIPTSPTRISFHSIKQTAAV
# T1 sequence (P24387 whole entry): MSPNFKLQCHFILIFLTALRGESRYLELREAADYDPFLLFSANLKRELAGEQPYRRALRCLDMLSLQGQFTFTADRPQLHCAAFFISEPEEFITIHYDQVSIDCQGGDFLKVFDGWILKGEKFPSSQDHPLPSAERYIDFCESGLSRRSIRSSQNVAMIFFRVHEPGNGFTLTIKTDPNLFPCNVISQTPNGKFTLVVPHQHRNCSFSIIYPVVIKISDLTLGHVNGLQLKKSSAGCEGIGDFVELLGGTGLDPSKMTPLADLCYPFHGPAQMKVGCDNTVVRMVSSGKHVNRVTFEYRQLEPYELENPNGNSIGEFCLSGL
# [4] = target: T1, Corticotropin-releasing factor receptor 2/Corticotropin-releasing factor-binding protein; assay: Dose Response confirmation of uHTS hits for small molecule antagonists of the CRF-binding protein and CRF-R2 receptor complex.; type: functional; details: read-out: IC50_Mean
# Cytochrome P450 1A2 = target: T2, Cytochrome P450 1A2 (Homo sapiens, UniProt P05177);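 note: PubChem cytochrome P450 panel assay, CYP1A2 panel member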
# T2 sequence (P05177 whole entry): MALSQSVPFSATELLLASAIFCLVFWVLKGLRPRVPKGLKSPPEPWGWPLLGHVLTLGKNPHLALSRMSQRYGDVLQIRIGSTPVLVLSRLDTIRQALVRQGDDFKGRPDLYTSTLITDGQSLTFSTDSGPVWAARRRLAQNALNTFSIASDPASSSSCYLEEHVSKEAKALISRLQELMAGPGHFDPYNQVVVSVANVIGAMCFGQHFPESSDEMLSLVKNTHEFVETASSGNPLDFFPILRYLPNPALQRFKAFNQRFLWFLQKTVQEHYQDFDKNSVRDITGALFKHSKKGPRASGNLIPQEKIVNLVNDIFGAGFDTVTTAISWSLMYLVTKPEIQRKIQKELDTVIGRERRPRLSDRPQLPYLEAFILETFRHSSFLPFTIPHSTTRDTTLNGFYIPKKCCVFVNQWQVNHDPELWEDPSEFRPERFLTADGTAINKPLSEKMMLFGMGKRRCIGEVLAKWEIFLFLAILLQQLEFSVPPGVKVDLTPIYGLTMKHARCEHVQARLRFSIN
# Streptokinase A = target: T3, Streptokinase A (Streptococcus pyogenes serotype M1, UniProt P10520); assay: viability-normalized secreted streptokinase activity reduction – plasminogen activation absorbance, OD405, dose response (AID 1914); type: functional, Streptococcus pyogenes M1 GAS;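 note: secreted streptokinase activity via plasminogen activation per viability signal from cell pellet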
# T3 sequence (P10520 whole entry): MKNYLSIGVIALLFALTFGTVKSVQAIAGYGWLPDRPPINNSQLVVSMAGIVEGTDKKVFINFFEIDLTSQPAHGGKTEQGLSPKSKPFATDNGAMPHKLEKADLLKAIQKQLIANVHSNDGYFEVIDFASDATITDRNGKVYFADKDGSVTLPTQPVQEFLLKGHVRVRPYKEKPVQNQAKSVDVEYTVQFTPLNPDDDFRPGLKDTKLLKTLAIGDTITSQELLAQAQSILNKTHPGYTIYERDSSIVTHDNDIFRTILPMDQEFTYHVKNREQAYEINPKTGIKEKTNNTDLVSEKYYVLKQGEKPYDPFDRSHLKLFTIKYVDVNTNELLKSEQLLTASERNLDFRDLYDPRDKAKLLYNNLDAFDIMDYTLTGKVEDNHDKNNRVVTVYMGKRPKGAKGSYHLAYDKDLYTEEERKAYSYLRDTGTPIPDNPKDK
# Streptococcus = assay: GAS UMAA2166 growth inhibition – luminescence, BacTiterGlo, counter-screen for streptokinase expression inhibitor project, dose response (AID 1915); type: functional, organism-based;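 note: potency for reduction of bacterial viability or growth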
# [5] = system: Streptococcus sp. 'group A'; assay: Streptococcus pyogenes SK(-)GAS viability under kanamycin – luminescence, BacTiterGlo, confirmation, counter-screen for streptokinase expression inhibitor project, dose response (AID 1900); type: functional, organism-based
# Cytochrome P450 2C19 = Cytochrome P450 2C19 (Homo sapiens, UniProt P33261); assay: Cytochrome panel assay with activity outcomes. Panel member name: p450-cyp2c19 Compounds with AC50 equal or less than 10 uM are considered active; type: functional; details: read-out: AC50
# Cytochrome P450 3A4 = Cytochrome P450 3A4 (Homo sapiens, UniProt P08684);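 note: CYP3A4 tested as one member of a cytochrome P450 panel screen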
# Sequence of Cytochrome P450 3A4 (P08684 whole entry): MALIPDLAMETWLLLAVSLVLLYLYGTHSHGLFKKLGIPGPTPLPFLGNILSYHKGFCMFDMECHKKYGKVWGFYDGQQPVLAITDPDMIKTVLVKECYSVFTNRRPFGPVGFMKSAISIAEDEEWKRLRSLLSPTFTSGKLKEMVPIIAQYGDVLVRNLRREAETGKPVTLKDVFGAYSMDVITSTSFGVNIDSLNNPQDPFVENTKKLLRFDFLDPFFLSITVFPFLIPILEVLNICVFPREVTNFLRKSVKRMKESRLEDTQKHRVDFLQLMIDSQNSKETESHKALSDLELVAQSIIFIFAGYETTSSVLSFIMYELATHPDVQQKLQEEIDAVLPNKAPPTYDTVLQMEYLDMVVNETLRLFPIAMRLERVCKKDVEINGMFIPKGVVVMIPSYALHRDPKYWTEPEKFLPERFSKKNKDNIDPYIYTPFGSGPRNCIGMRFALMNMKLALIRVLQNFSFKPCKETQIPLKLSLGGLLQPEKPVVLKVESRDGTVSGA
# Sequence of Cytochrome P450 2D6 (P10635 whole entry): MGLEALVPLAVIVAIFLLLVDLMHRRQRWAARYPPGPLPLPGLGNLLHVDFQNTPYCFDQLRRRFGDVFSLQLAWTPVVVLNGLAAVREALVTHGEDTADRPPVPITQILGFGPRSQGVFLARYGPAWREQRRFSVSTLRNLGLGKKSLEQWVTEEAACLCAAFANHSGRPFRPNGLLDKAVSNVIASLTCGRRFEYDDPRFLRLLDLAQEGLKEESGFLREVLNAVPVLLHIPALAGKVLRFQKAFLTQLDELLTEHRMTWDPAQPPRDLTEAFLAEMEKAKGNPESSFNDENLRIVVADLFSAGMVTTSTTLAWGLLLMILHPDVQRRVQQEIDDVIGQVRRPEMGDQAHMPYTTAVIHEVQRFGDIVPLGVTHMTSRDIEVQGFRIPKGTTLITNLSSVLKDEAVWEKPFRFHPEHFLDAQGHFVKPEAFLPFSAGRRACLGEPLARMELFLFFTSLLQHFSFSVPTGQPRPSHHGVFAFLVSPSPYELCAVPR
# Sequence of Cytochrome P450 2C9 (P11712 whole entry): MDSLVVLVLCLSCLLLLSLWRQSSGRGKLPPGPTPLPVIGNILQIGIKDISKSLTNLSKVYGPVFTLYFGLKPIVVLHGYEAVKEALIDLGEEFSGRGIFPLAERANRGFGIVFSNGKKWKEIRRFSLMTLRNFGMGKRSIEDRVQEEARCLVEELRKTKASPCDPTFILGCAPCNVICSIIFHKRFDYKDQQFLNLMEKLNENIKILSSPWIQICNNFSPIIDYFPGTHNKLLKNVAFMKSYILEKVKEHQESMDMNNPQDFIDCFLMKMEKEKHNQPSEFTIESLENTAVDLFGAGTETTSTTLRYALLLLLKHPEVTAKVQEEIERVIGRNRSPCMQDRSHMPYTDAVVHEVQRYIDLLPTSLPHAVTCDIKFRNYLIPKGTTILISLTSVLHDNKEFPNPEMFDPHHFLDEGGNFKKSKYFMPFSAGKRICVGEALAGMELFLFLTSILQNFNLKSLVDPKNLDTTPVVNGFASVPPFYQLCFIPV
# Sequence of Cytochrome P450 2C19 (P33261 whole entry): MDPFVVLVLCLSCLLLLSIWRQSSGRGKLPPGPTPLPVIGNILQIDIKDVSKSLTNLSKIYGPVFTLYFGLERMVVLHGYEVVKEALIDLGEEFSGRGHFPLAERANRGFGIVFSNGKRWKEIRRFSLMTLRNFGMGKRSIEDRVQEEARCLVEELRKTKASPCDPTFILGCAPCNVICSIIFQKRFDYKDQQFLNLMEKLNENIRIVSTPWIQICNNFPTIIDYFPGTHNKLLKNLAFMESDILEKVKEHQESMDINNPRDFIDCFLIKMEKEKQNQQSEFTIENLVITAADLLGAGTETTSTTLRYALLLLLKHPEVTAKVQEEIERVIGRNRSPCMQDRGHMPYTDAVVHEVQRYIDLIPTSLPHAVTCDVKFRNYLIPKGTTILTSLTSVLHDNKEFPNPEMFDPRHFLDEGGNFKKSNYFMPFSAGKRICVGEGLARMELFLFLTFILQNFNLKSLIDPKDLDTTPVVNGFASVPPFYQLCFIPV
smiles,measurement,setting,value
O=C(NCCSc1ccccc1)c1cncc(Br)c1,EC50,[1],5.57 µM (active)
same,EC50,[2],30.1 µM (active)
same,EC50,H4,9.26 µM (active)
N#CCSc1nc2ccc(N3CCCCC3)cc2c(=O)n1Cc1ccccc1,AC50,Cytochrome P450 2C9,4.47 µM (inconclusive)
same,AC50,Cytochrome P450 2D6,5.62 µM (inconclusive)
CCOC(=O)c1c[nH]nc1N=C(S)Nc1ccc(Cl)cc1,EC50,[3],> 53 µM (inactive)
same,IC50,[4],> 47.1 µM (inactive)
CCCCC(=O)Nc1ccc(C)c(O)c1,AC50,Cytochrome P450 2C9,14.1 µM (inconclusive)
same,AC50,Cytochrome P450 2D6,17.8 µM (inconclusive)
O=C(/C=C\c1ccc(O)c(O)c1)O[C@@H](Cc1ccc(O)c(O)c1)C(=O)O,AC50,Cytochrome P450 1A2,25.1 µM (inconclusive)
NC1(C(=O)O)CC(C(=O)O)C1 (stereo not drawn),AC50,Cytochrome P450 1A2,39.8 µM (inconclusive)
Nc1nc(N)c(/N=N\c2ccc([As](=O)(O)O)c(O)c2)c(N)n1,AC50,Cytochrome P450 1A2,6.31 µM (inconclusive)
Cc1ccc2nc(SCC(=O)c3ccc(Cl)s3)[nH]c2c1,EC50,Streptokinase A,> 150 µM (not active)
Cc1cccc(NC2=NN=C(c3c(C)[nH]c4ccccc34)CS2)c1,EC50,Streptococcus; Streptococcus,6.58 µM (active)
same,EC50,[5]; Streptococcus sp. 'group A',3.91 µM (active)
same,EC50,Streptokinase A,> 150 µM (not active)
O=C(Nc1ccccc1)N1CC2(CCN(C(=O)c3cnccn3)CC2)C1,AC50,Cytochrome P450 1A2,20 µM (inconclusive)
Cc1ccc(C(O)(C(=O)NNc2ccc3ccccc3n2)c2ccc(C)cc2)cc1,EC50,Streptococcus,10.9 µM (active)
same,EC50,Streptococcus; Streptococcus,12.1 µM (active)
same,EC50,[5],2.55 µM (active)
same,EC50,[5]; Streptococcus sp. 'group A',3.72 µM (active)
same,EC50,Streptokinase A,> 150 µM (not active) and 8.85 µM (active)
N#Cc1ccc(CN2CC[C@@]3(CCCN(S(=O)(=O)c4ccccc4)C3)C2)cc1,AC50,Cytochrome P450 1A2,15.8 µM (inconclusive)
COc1ccc(OC)c(NC(=O)NC2CCCc3ccccc32)c1 (stereo not drawn),EC50,Streptococcus; Streptococcus,> 150 µM (not active)
same,EC50,[5]; Streptococcus sp. 'group A',> 150 µM (not active)
same,EC50,Streptokinase A,> 150 µM (not active)
Cc1cnn(CCC(=O)NN=C(S)Nc2cccc(Cl)c2)c1,AC50,Cytochrome P450 2C9,15.8 µM (inconclusive)
same,AC50,Cytochrome P450 1A2,15.8 µM (inconclusive)
same,AC50,Cytochrome P450 2C19,39.8 µM (inconclusive)
COc1cc(NC(=O)CSc2cc(C)c3cc(C)cc(C)c3n2)c(C(=O)O)cc1OC,EC50,[3],> 53 µM (inactive)
same,IC50,[4],> 47.1 µM (inactive)
CCOc1cc(NC(=O)C2CCCCC2)c(OCC)cc1NC(=O)c1ccco1,AC50,Cytochrome P450 2C9,11.2 µM (inconclusive)
same,AC50,Cytochrome P450 1A2,2 µM (inconclusive)
same,AC50,Cytochrome P450 3A4,1.12 µM (inconclusive)
COc1ccccc1-c1nnc(NC(=O)c2ccc(S(=O)(=O)N(C)CC3CCCO3)cc2)o1 (stereo not drawn),EC50,Streptococcus; Streptococcus,78.9 µM (active)
same,EC50,[5]; Streptococcus sp. 'group A',19.5 µM (active)
same,EC50,Streptokinase A,> 150 µM (not active)
CCn1c(COc2ccccc2)nnc1SCC(=O)c1cccc([N+](=O)[O-])c1,AC50,Cytochrome P450 1A2,28.2 µM (inconclusive)
same,AC50,Cytochrome P450 2C19,39.8 µM (inconclusive)
CCCC(=O)Nc1ccc(-c2nc3cc(C)c(C)cc3o2)c(O)c1,EC50,[3],> 53 µM (inactive)
same,IC50,[4],> 47.1 µM (inactive)
O=[N+]([O-])c1cccc(-c2nc(-c3ccccn3)no2)c1,EC50,[3],> 53 µM (inactive)
same,IC50,[4],> 47.1 µM (inactive)
N#CCCn1c(=O)c(-c2cccc(C#N)c2)nc2cnc(N3CCOCC3)nc21,AC50,Cytochrome P450 1A2,15.8 µM (inconclusive)
same,AC50,Cytochrome P450 3A4,15.8 µM (inconclusive)
CC1(C)C(=O)C(c2ccccc2)=C2CN3C(=O)N(CCc4ccccc4)C(=O)C3(Cc3ccc(F)cc3)C=C21 (stereo not drawn),AC50,Cytochrome P450 2C9,10 µM (inconclusive)
same,AC50,Cytochrome P450 1A2,15.8 µM (inconclusive)
CCOc1ccccc1/C=C(/NC(=O)c1ccccc1)C(=O)NC(C)c1ccccc1 (stereo not drawn),EC50,[3],> 53 µM (inactive)
same,IC50,[4],> 47.1 µM (inactive)
CCCCC(C(=O)O)C(C)CC(=O)Nc1nncs1 (stereo not drawn),EC50,[3],> 53 µM (inactive)
same,IC50,[4],> 47.1 µM (inactive)
CNP(=O)(Oc1ccccc1)OC12CC3CC(CC(C3)C1)C2 (stereo not drawn),EC50,[3],> 53 µM (inactive)
same,IC50,[4],> 47.1 µM (inactive)
CCOC(=O)[C@@H]1[C@H]2COc3ccccc3[C@H]2N2C(=O)N(c3ccc(C(F)(F)F)cc3)C(=O)[C@]12C,EC50,Streptococcus; Streptococcus,> 150 µM (not active)
same,EC50,[5]; Streptococcus sp. 'group A',9.78 µM (active)
same,EC50,Streptokinase A,17 µM (inconclusive)
O=c1c2ccccc2nc(-c2ccco2)n1Cc1ccccc1,EC50,[1],8.08 µM (active)
same,EC50,[2],34.1 µM (active)
O=c1c(CCc2ccccc2)nc2cnc(N3CCNCC3)nc2n1Cc1ccc(F)cc1,AC50,Cytochrome P450 1A2,10 µM (inconclusive)
same,AC50,Cytochrome P450 2D6,25.1 µM (inconclusive)
O=C(Nc1cccc(-c2ccc(N3CCOCC3)nn2)c1)c1ccccc1Cl,EC50,Streptococcus; Streptococcus,> 150 µM (not active)
same,EC50,[5]; Streptococcus sp. 'group A',> 150 µM (not active)
same,EC50,Streptokinase A,> 150 µM (not active)
COc1ccc(Nc2nc(NN)nc(Nc3ccc(OC)cc3)n2)cc1,EC50,Streptococcus; Streptococcus,> 150 µM (not active)
same,EC50,[5]; Streptococcus sp. 'group A',11.3 µM (active)
same,EC50,Streptokinase A,> 150 µM (not active)
CCOC(=O)c1sc2ncnc(NCC(c3cccs3)N(C)C)c2c1C (stereo not drawn),EC50,Streptococcus; Streptococcus,50.8 µM (active)
same,EC50,[5]; Streptococcus sp. 'group A',7.15 µM (active)
same,EC50,Streptokinase A,> 150 µM (not active)
CCS(=O)(=O)c1ccc(C(=O)Nc2ccccc2)c(Cl)c1Cl,AC50,Cytochrome P450 1A2,14.1 µM (inconclusive)
same,AC50,Cytochrome P450 2D6,31.6 µM (inconclusive)
COc1ccc(NC(=S)Nc2ccccc2)cc1,AC50,Cytochrome P450 1A2,1.26 µM (inconclusive)
Cc1ccc(C2NC(=O)c3ccccc3N2)s1 (stereo not drawn),EC50,[1],10.5 µM (active)
same,EC50,[2],> 120 µM (not active)
same,EC50,H4,11.8 µM (active)
CC[C@@](O)(C(=O)O)c1cc2n(c(=O)c1CO)Cc1cc3ccccc3nc1-2,AC50,Cytochrome P450 1A2,3.16 µM (inconclusive)
same,AC50,Cytochrome P450 3A4,3.16 µM (inconclusive)
O=C(NC1CCCC1)C1CCC(CNS(=O)(=O)c2ccc(F)cc2)CC1 (stereo not drawn),EC50,[3],> 53 µM (inactive)
same,IC50,[4],> 47.1 µM (inactive)
O=C(Nc1ccc(S(=O)(=O)N2CCOCC2)cc1)c1ccc(Cl)c([N+](=O)[O-])c1,EC50,[3],> 53 µM (inactive)
same,IC50,[4],> 47.1 µM (inactive)
O=C(NCCN1CCN(C(=O)NC2CCCCC2)CC1)NC1CCCCC1,EC50,[3],> 53 µM (inactive)
same,IC50,[4],> 47.1 µM (inactive)
O=C(O)c1ccc(/C=N/Nc2cccc(C(F)(F)F)c2)cc1,EC50,[3],> 53 µM (inactive)
same,IC50,[4],43.7 µM (active)
O=C(Nc1ccn(CCCNCc2ccc3c(c2)OCO3)c(=O)n1)OCc1ccccc1,EC50,[3],> 53 µM (inactive)
same,IC50,[4],> 47.1 µM (inactive)
Cc1onc(O)c1CC[C@H](N)C(=O)O,AC50,Cytochrome P450 1A2,39.8 µM (inconclusive)
